Where two headings read alike, the source gives them in different places.
Columns and labels:
CETP = biological target: T1, CETP (Oryctolagus cuniculus, UniProt P22687); assay: CETP Inhibitor Drug Screening Kit (Biovision K602-100), cholesterol transfer activity; type: biochemical; details: 100 μM
T1 construct: purchased Biovision Research Products K602-100
T1 sequence (P22687 2-497): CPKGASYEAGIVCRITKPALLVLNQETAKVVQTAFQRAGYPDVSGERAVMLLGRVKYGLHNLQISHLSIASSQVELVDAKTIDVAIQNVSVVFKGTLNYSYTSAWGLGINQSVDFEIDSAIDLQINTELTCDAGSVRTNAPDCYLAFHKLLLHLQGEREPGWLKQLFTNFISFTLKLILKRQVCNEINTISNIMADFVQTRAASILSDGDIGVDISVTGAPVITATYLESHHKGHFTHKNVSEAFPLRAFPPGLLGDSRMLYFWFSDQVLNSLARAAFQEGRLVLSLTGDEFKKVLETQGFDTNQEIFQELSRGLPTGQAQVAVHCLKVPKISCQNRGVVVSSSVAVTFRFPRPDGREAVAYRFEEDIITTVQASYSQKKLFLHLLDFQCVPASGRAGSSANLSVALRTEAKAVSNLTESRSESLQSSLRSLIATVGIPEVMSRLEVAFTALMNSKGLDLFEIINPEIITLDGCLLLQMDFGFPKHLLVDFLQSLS
Method: The inhibitory activity of FZX-CETP-001 was determined in vitro using a commercially available CETP Inhibitor Drug Screening Kit (catalog # K602-100). The kit is available from Biovision Research Products, located in Mountain View, Calif. USA. Information regarding the kit is available at the following url addresses: http://www.biovisionlabs.com/cetp-pltp.html; and http://www.biovision.com/pdf/K602-100.pdf
Following the directions provided with the kit, FZX-CETP-001 was assayed for inhibitory activity.

Apo*E3Leiden.hCETP mice = details: for HDL cholesterol relative to control group / HDL phospholipids relative to control group / LDL cholesterol relative to control group / LDL phospholipids relative to control group: pooled blood
Method: A test group of 36 female transgenic Apo*E3Leiden/hCETP mice were fed a high fat western-type diet (containing by weight 15% coconut oil and 0.1% cholesterol) to increase plasma cholesterol levels to around 10 mM. After three weeks the mice were subdivided into 6 groups of 6 mice each, matched for plasma cholesterol, triglycerides and age.
Oral gavage at each separate concentration was administered with an aqueous solution containing by volume 5% ethanol, 4% PEG-400, 1% cremaphor over a period of 1 week per concentration. At the end of each 1 week treatment period, blood samples were collected after a 4 hours fasting period. Mice treated by oral gavage were left alone for 1 week after each collection of blood samples.
For each subcutaneous depot injection experiment, the appropriate dose in sesame oil solution was injected once and blood samples were collected 24 hours after injection (at the end of a 4 hour fasting period). Mice treated by subcutaneous injection were left alone for 13 days after each collection of blood samples.
Blood samples from untreated test animals and from animals treated by gavage or subcutaneous depot injection were pooled separately and a lipoprotein profile was measured by AKTA fast protein liquid chromatography (FPLC)(http://www.gmi-inc.com/BioTechLab/Pharmacia%20AKTA.htm) to determine the level of cholesterol and phospholipid associated with HDL and LDL. […] Additionally, food intake levels (per group), body weights, cholesterol levels, and triglyceride levels, were monitored.

[1] = oral gavage 0.1 mg/kg/day, 1 week
[2] = oral gavage 0.3 mg/kg/day, 1 week
[3] = oral gavage 1.0 mg/kg/day, 1 week
[4] = serum cholesterol profiles, FIGS. 2A-2D, increasing dose
[5] = serum phospholipid profiles, increasing dose
[6] = subcutaneous depot injection 0.3 mg/kg, 24 hours after injection
[7] = subcutaneous depot injection 1.0 mg/kg, 24 hours after injection
[8] = subcutaneous depot injection 3.0 mg/kg, 24 hours after injection

## CC(C)(Oc1ccc(Cl)cc1)C(=O)OCCN1CCN(CCCN2c3ccccc3Sc3ccc(C(F)(F)F)cc32)CC1 [FZX-CETP-0001, Fluphenazine 4-chlorophenoxyisobutyric acid ester]
CETP
  inhibition of CETP: 100%
CETP; Average, N = 2
  Cholesterol Transfer Activity, Fluorescence Units: 8312 Fluorescence Units
Apo*E3Leiden.hCETP mice; lowest tested dosage of 0.1 mg/kg/day by gavage, treated vs untreated control
  HDL-C to LDL-C ratio: marked increase
Apo*E3Leiden.hCETP mice; mouse, in vivo
  control parameters (food intake levels, body weights, cholesterol levels, triglyceride levels): no statistically significant difference
Apo*E3Leiden.hCETP mice; [1]
  HDL cholesterol relative to control group: 204%
  HDL phospholipids relative to control group: 128%
  LDL cholesterol relative to control group: 81%
  LDL phospholipids relative to control group: 81%
Apo*E3Leiden.hCETP mice; [2]
  HDL cholesterol relative to control group: 121%
  HDL phospholipids relative to control group: 136%
  LDL cholesterol relative to control group: 94%
  LDL phospholipids relative to control group: 92%
Apo*E3Leiden.hCETP mice; [3]
  HDL cholesterol relative to control group: 269%
  HDL phospholipids relative to control group: 129%
  LDL cholesterol relative to control group: 80%
  LDL phospholipids relative to control group: 96%
Apo*E3Leiden.hCETP mice; [4]
  ratio of HDL-C level in the treated to untreated mice: increases
  ratio of LDL-C level (total area under the curve) in treated to untreated mice: decreases with increasing dose
Apo*E3Leiden.hCETP mice; [5]
  ratio of HDL-C level in the treated to untreated mice: increases
  ratio of LDL-C phospholipid level (total area under the curve) in treated to untreated mice: decreases with increasing dose
Apo*E3Leiden.hCETP mice; [6]
  HDL cholesterol relative to control group: 286%
  HDL phospholipids relative to control group: 141%
  LDL cholesterol relative to control group: 100%
  LDL phospholipids relative to control group: 71%
Apo*E3Leiden.hCETP mice; [7]
  HDL cholesterol relative to control group: 277%
  HDL phospholipids relative to control group: 173%
  LDL cholesterol relative to control group: 78%
  LDL phospholipids relative to control group: 56%
Apo*E3Leiden.hCETP mice; [8]
  HDL cholesterol relative to control group: 1119%
  HDL phospholipids relative to control group: 169%
  LDL cholesterol relative to control group: 55%
  LDL phospholipids relative to control group: 70%
Apo*E3Leiden.hCETP mice; subcutaneous injections at doses at or above 1 mg/kg
  triglyceride level: slightly reduced
